# What was measured:
# Type in all cases: in vivo
# [1] = tested on: corn; assay: Test Example 5: effect on crop by foliage application, plastic box (symbol c); conditions: 320 g/ha, 3 weeks after application
# How it was run: (§1)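 Greenhouse culture at 25° C. to 30° C. followed spot-like sowing into sterilized diluvial soil, with seed covered by roughly 1.5 cm of soil.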
# [2] = tested on: rice plant; assay: Test Example 5: effect on crop by foliage application, plastic box (symbol b); conditions: 320 g/ha, 3 weeks after application
# How it was run: as §1
# [3] = tested on: Echinochloa crus-galli var. crus-galli; assay: Test Example 3: herbicidal effect by foliage application, Wagner pot (symbol H); conditions: application herbicide amount 320 g/ha
# How it was run: (§2)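 Scoring took place 3 weeks after application, using fixed criteria. Plants had been raised from seed for 14 days at 25 to 30 °C in submerged alluvial soil before a diluted emulsion of the test compound was sprayed uniformly on the leaves.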
# [4] = tested on: Amaranthus retroflexus; assay: Test Example 5: herbicidal effect by foliage application, plastic box (symbol N); conditions: 320 g/ha, 3 weeks after application
# How it was run: (§3)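 Emulsion formulation, diluted with water to the intended rate, was applied uniformly to leaves by small sprayer. Recipients were 14-day greenhouse-grown seedlings (25° C. to 30° C.). Assessment followed at 3 weeks.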
# [5] = tested on: Setaria viridis; assay: Test Example 5: herbicidal effect by foliage application, plastic box (symbol G); conditions: 320 g/ha, 3 weeks after application
# How it was run: as §3
# [6] = tested on: Echinochloa oryzacola Vasing.; assay: Test Example 1: herbicidal activity, application before weed generation in submerged conditions (symbol A); conditions: application herbicide amount 320 g/ha
# How it was run: (§4)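 In a flooded pot test with alluvial soil, the emulsion-formulated compound was diluted with water to a predetermined amount and applied to the floodwater immediately on the sowing day. Pots were held in a greenhouse at 25–30 °C for 3 weeks before each weed was rated.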
# [7] = tested on: Scirpus juncoides; assay: Test Example 1: herbicidal activity, application before weed generation in submerged conditions (symbol B); conditions: application herbicide amount 320 g/ha
# How it was run: as §4
# [8] = tested on: Alopecurus myosuroides; assay: Test Example 5: herbicidal effect by foliage application, plastic box (symbol J); conditions: 320 g/ha, 3 weeks after application
# How it was run: as §3
# [9] = tested on: Cyperus difformis; assay: Test Example 3: herbicidal effect by foliage application, Wagner pot (symbol E); conditions: application herbicide amount 320 g/ha
# How it was run: as §2
# [10] = tested on: Veronica persica; assay: Test Example 5: herbicidal effect by foliage application, plastic box (symbol R); conditions: 320 g/ha, 3 weeks after application
# How it was run: as §3
# [11] = tested on: Apera spica-venti; assay: Test Example 5: herbicidal effect by foliage application, plastic box (symbol L); conditions: 320 g/ha, 3 weeks after application
# How it was run: as §3
# [12] = tested on: soybean; assay: Test Example 5: effect on crop by foliage application, plastic box (symbol d); conditions: 320 g/ha, 3 weeks after application
# How it was run: as §1
# [13] = tested on: Galium spurium; assay: Test Example 5: herbicidal effect by foliage application, plastic box (symbol Q); conditions: 320 g/ha, 3 weeks after application
# How it was run: as §3
# [14] = tested on: wheat; assay: Test Example 5: effect on crop by foliage application, plastic box (symbol e); conditions: 320 g/ha, 3 weeks after application
# How it was run: as §1
# [15] = tested on: directly sowed rice plant; assay: Test Example 3: effect on crop by foliage application, Wagner pot (symbol b); conditions: application herbicide amount 320 g/ha
# How it was run: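 Steps: fill a 1/10000-are Wagner pot with alluvial soil; add water and mix to submerge at 0.1–0.5 cm depth; sow rice plus Echinochloa crus-galli var. crus-galli, Leptochloa chinensis and Cyperus difformis; grow in a 25–30 °C greenhouse.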
# [16] = tested on: beet; assay: Test Example 5: effect on crop by foliage application, plastic box (symbol f); conditions: 320 g/ha, 3 weeks after application
# How it was run: as §1
# [17] = tested on: transplanted rice plant; assay: Test Example 1: effect on crop, application before weed generation in submerged conditions (symbol a); conditions: application herbicide amount 320 g/ha
# How it was run: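 Rice at 2.5 leaf stage transplanted into submerged soil (4 cm depth) sown with three weed species; herbicide applied before weed emergence.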
# [18] = tested on: Chenopodium album; assay: Test Example 5: herbicidal effect by foliage application, plastic box (symbol O); conditions: 320 g/ha, 3 weeks after application
# How it was run: as §3
# [19] = tested on: Leptochloa chinensis; assay: Test Example 3: herbicidal effect by foliage application, Wagner pot (symbol D); conditions: application herbicide amount 320 g/ha
# How it was run: as §2
# [20] = tested on: Monochoria vaginalis; assay: Test Example 1: herbicidal activity, application before weed generation in submerged conditions (symbol C); conditions: application herbicide amount 320 g/ha
# Excerpt: Herbicidal Activity Test by Application Before Weed Generation in Submerged Conditions
# After alluvial soil was placed into 1/10000 are of Wagner pot, water was poured and mixed to form a submerged condition having a water depth of 4 cm. Seeds of Echinochloa oryzacola Vasing., Scirpus juncoides, and Monochoria vaginalis were sowed in a mixed manner in the above pot and thereafter 2.5 leaf stage rice plant seedlings were transplanted thereto. On the day of sowing seeds, the emulsion agent of the compound of the present invention prepared in accordance with Formulation Example 2 was diluted with water so as to be a predetermined herbicide amount and the diluted emulsion agent was applied to the surface of the water. The pot was placed in a greenhouse of 25° C. to 30° C. to grow plant. 3 weeks later from the herbicide application, the effect to each plant was investigated in accordance with the following criteria.
# 5 Herbicidal ratio of 90% or more (almost completely withered)
# 4 Herbicidal ratio of 70% or higher and lower than 90%
# 3 Herbicidal ratio of 40% or higher and lower than 70%
# 2 Herbicidal ratio of 20% or higher and lower than 40%
# 1 Herbicidal ratio of 5% or higher and lower than 20%
# 0 Herbicidal ratio of 5% or lower (almost no effect)
# [21] = tested on: Digitaria ciliaris; assay: Test Example 5: herbicidal effect by foliage application, plastic box (symbol F); conditions: 320 g/ha, 3 weeks after application
# How it was run: as §3
# [22] = tested on: Lolium multiflorum Lam.; assay: Test Example 5: herbicidal effect by foliage application, plastic box (symbol K); conditions: 320 g/ha, 3 weeks after application
# How it was run: as §3
# [23] = tested on: Avena fatua; assay: Test Example 5: herbicidal effect by foliage application, plastic box (symbol I); conditions: 320 g/ha, 3 weeks after application
# How it was run: as §3
# [24] = tested on: rapeseed; assay: Test Example 5: effect on crop by foliage application, plastic box (symbol g); conditions: 320 g/ha, 3 weeks after application
# How it was run: as §1
# [25] = tested on: Stellaria media; assay: Test Example 5: herbicidal effect by foliage application, plastic box (symbol P); conditions: 320 g/ha, 3 weeks after application
# How it was run: as §3
# [26] = tested on: Echinochloa crus-galli var. crus-galli; assay: Test Example 5: herbicidal effect by foliage application, plastic box (symbol H); conditions: 320 g/ha, 3 weeks after application
# How it was run: as §3
# [27] = tested on: Abutilon theophrasti; assay: Test Example 5: herbicidal effect by foliage application, plastic box (symbol M); conditions: 320 g/ha, 3 weeks after application
# How it was run: as §3
smiles,measurement,setting,value
COCCOc1cc(C)c(C2=C(O)CC(CC(C)=NOC)C2=O)c(C)c1 (stereo not drawn) [6-098],"c: corn, effect on crop (criteria of Test Example 1)",[1],1 (Herbicidal ratio of 5% or higher and lower than 20%)
same,"b: directly sowed rice plant, effect on crop (criteria of Test Example 1)",[2],2 (Herbicidal ratio of 20% or higher and lower than 40%)
same,"herbicidal effect on H (Echinochloa crus-galli var. crus-galli), grade 0-5",[3],3 (Herbicidal ratio of 40% or higher and lower than 70%)
same,"N: Amaranthus retroflexus, herbicidal effect (criteria of Test Example 1)",[4],0 (Herbicidal ratio of 5% or lower (almost no effect))
same,"G: Setaria viridis, herbicidal effect (criteria of Test Example 1)",[5],3 (Herbicidal ratio of 40% or higher and lower than 70%)
same,"Herbicidal effect grade, A: Echinochloa oryzacola Vasing.",[6],0 (Herbicidal ratio of 5% or lower (almost no effect))
same,"Herbicidal effect grade, B: Scirpus juncoides",[7],1 (Herbicidal ratio of 5% or higher and lower than 20%)
same,"J: Alopecurus myosuroides, herbicidal effect (criteria of Test Example 1)",[8],3 (Herbicidal ratio of 40% or higher and lower than 70%)
same,"herbicidal effect on E, grade 0-5",[9],4 (Herbicidal ratio of 70% or higher and lower than 90%)
same,"R: Veronica persica, herbicidal effect (criteria of Test Example 1)",[10],0 (Herbicidal ratio of 5% or lower (almost no effect))
same,"L: Apera spica-venti, herbicidal effect (criteria of Test Example 1)",[11],4 (Herbicidal ratio of 70% or higher and lower than 90%)
same,"d: soybean, effect on crop (criteria of Test Example 1)",[12],0 (Herbicidal ratio of 5% or lower (almost no effect))
same,"Q: Galium spurium, herbicidal effect (criteria of Test Example 1)",[13],0 (Herbicidal ratio of 5% or lower (almost no effect))
same,"e: wheat, effect on crop (criteria of Test Example 1)",[14],2 (Herbicidal ratio of 20% or higher and lower than 40%)
same,"effect on crop b (directly sowed rice plant), grade 0-5",[15],5 (Herbicidal ratio of 90% or more (almost completely withered))
same,"f: beet, effect on crop (criteria of Test Example 1)",[16],0 (Herbicidal ratio of 5% or lower (almost no effect))
same,"Effect grade on crop, a: transplanted rice plant",[17],1 (Herbicidal ratio of 5% or higher and lower than 20%)
same,"O: Chenopodium album, herbicidal effect (criteria of Test Example 1)",[18],0 (Herbicidal ratio of 5% or lower (almost no effect))
same,"herbicidal effect on D (Leptochloa chinensis), grade 0-5",[19],5 (Herbicidal ratio of 90% or more (almost completely withered))
same,"Herbicidal effect grade, C: Monochoria vaginalis",[20],0 (Herbicidal ratio of 5% or lower (almost no effect))
same,"F: Digitaria ciliaris, herbicidal effect (criteria of Test Example 1)",[21],3 (Herbicidal ratio of 40% or higher and lower than 70%)
same,"K: Lolium multiflorum Lam., herbicidal effect (criteria of Test Example 1)",[22],5 (Herbicidal ratio of 90% or more (almost completely withered))
same,"I: Avena fatua, herbicidal effect (criteria of Test Example 1)",[23],1 (Herbicidal ratio of 5% or higher and lower than 20%)
same,"g: rapeseed, effect on crop (criteria of Test Example 1)",[24],0 (Herbicidal ratio of 5% or lower (almost no effect))
same,"P: Stellaria media, herbicidal effect (criteria of Test Example 1)",[25],0 (Herbicidal ratio of 5% or lower (almost no effect))
same,"H: Echinochloa crus-galli var. crus-galli, herbicidal effect (criteria of Test Example 1)",[26],2 (Herbicidal ratio of 20% or higher and lower than 40%)
same,"M: Abutilon theophrasti, herbicidal effect (criteria of Test Example 1)",[27],0 (Herbicidal ratio of 5% or lower (almost no effect))

# — patent US11000033B2, “Ketone or oxime compound, and herbicide” (NISSAN CHEMICAL CORPORATION, priority 2014, dated 2021)
